Experimental findings from patent publication US20080221096A1, “Pyrido[3' ,2':4,5]Furo[3,2-d]Pyrimidine Derivatives” (priority 2005, published 2008) are described below.

Each structure is given as a SMILES string. pIC50: −log10 of the molar value.

The test system of the experiment is PDE4. As to the kind of experiment: PDE4 Assay Procedure ([3H]-cAMP SPA). In kind it is biochemical. As to conditions: 15 nM [3H]-cAMP, 1 hour at room temperature, SPA beads.

Experimental: Compounds to be tested were resuspended in DMSO at a stock concentration of 1 mM. […] These dilutions were done in 96-well plates. In some cases, plates containing diluted compounds were frozen before being assayed. In these cases, the plates were thawed at room temperature and stirred for 15 minutes.
Ten microliters of the diluted compounds were poured into a “low binding” assay plate. […] The reaction was initiated by adding ten microliters of a solution containing PDE4. The plate was then incubated under stirring for 1 hour at room temperature. After incubation the reaction was stopped with 50 microlitres of SPA beads, and the reaction was allowed to incubate for another 20 minutes at room temperature before measuring radioactivity using standard instrumentation.
The reaction mixture was prepared by adding 90 ml of H2O to 10 ml of 10× assay buffer (500 mM Tris pH 7.5, 83 mM MgCl2, 17 mM EGTA), and 40 microlitres 1 μCi/μL [3H]-cAMP. SPA beads solution was prepared by adding 500 mg to 28 ml H2O for a final concentration of 20 mg/ml beads and 18 mM zinc sulphate.

A word on the pIC50: it is the IC50 on a negative log10 scale, so that one unit is a factor of ten. On to `CC1(C)CCc2c(N3CCOCC3)nc3oc4c(N(CCO)CCN5CCOCC5)ncnc4c3c2C1` [Example 20, 2-[(2,2-Dimethyl-5-morpholin-4-yl-1,2,3,4-tetrahydropyrimido[4′,5′:4,5]furo[2,3-c]isoquinolin-8-yl)(2-morpholin-4-ylethyl)amino]ethanol], for which the pIC50 is 9.10.

As to `CC1(C)Cc2c(c(N3CCOCC3)nc3oc4c(N(CCN5CCOCC5)Cc5cccnc5)ncnc4c23)CO1` [Example 14, 2,2-Dimethyl-5-morpholin-4-yl-N-(2-morpholin-4-ylethyl)-N-(pyridin-3-ylmethyl)-1,4-dihydro-2H-pyrano[4″,3″:4′,5′]pyrido[3′,2′:4,5]furo[3,2-d]pyrimidin-8-amine], the pIC50 was 8.00.

Turning to `CC1(C)CCc2c(N3CCOCC3)nc3oc4c(NCCN5CCOCC5)ncnc4c3c2C1` [Example 23, 2,2-Dimethyl-5-morpholin-4-yl-N-(2-morpholin-4-ylethyl)-1,2,3,4-tetrahydropyrimido[4′,5′:4,5]furo[2,3-c]isoquinolin-8-amine], the pIC50 was 8.05.

The molecule `CC1(C)CCc2c(NC3CCC3)nc3oc4c(NCCN5CCOCC5)ncnc4c3c2C1` [Example 46, N^5-Cyclobutyl-2,2-dimethyl-N^8-(2-morpholin-4-ylethyl)-1,2,3,4-tetrahydropyrimido [4′,5′:4,5]furo[2,3-c]isoquinoline-5,8-diamine] had a pIC50 of 9.15.

`CCNc1nc2oc3c(NCCCN4CCCC4=O)ncnc3c2c2c1CCC(C)(C)C2` [Example 35, 1-(3-{[5-(Ethylamino)-2,2-dimethyl-1,2,3,4-tetrahydropyrimido[4′,5′:4,5]furo[2,3-c]isoquinolin-8-yl]amino}propyl)pyrrolidin-2-one] showed a negative-log IC50 (pIC50) of 8.80.

Regarding `CCNc1nc2oc3c(NCCN4CCOCC4)ncnc3c2c2c1CCC(C)(C)C2` [Example 31, N^5-Ethyl-2,2-dimethyl-N^8-(2-morpholin-4-ylethyl)-1,2,3,4-tetrahydropyrimido[4′,5′:4,5]furo[2,3-c]isoquinoline-5,8-diamine], the negative logarithm of the IC50 (pIC50) is 8.70.
